Reference: patent US12203124B2, “Methods for improved rapid antimicrobial susceptibility testing” (priority 2016, dated 2025)
Converted amounts (≈) assume the structure as drawn.

Test system: E. coli strains
Test: CLSI overnight reference method, broth microdilution MIC
Type: cell-based
Details: for MIC (CLSI Ref): unit assumed
[1] = E. coli strain Clinical Sample 1
[2] = E. coli strain Clinical Sample 2
[3] = E. coli strain Clinical Sample 4
[4] = E. coli strain Clinical Sample 5
[5] = E. coli strain Clinical Sample 6
[6] = E. coli strain Clinical Sample 7
[7] = E. coli strain Clinical Sample 8
[8] = E. coli strain Clinical Sample 9
[9] = E. coli strain Clinical Sample 10
[10] = E. coli strain Clinical Sample 11
[11] = E. coli strain Clinical Sample 12
[12] = E. coli strain Clinical Sample 13

| Compound | MIC (CLSI Ref) (E. coli strain BEI 4.097) [µg/mL] | MIC (CLSI Ref) (E. coli strain CDC Carba36) [µg/mL] | MIC (CLSI Ref) [1] [µg/mL] | Interpretation letter [2] | MIC (CLSI Ref) [2] [µg/mL] | MIC (CLSI Ref) [3] [µg/mL] | MIC (CLSI Ref) [4] [µg/mL] | MIC (CLSI Ref) [5] [µg/mL] | MIC (CLSI Ref) [6] [µg/mL] | MIC (CLSI Ref) [7] [µg/mL] | MIC (CLSI Ref) [8] [µg/mL] | MIC (CLSI Ref) [9] [µg/mL] | MIC (CLSI Ref) [10] [µg/mL] | MIC (CLSI Ref) [11] [µg/mL] | MIC (CLSI Ref) [12] [µg/mL] |
| --- | --- | --- | --- | --- | --- | --- | --- | --- | --- | --- | --- | --- | --- | --- | --- |
| CN(C)[C@@H]1C(=O)C(C(N)=O)=C(O)[C@@]2(O)C(=O)C3=C(O)c4c(O)cccc4[C@@](C)(O)[C@H]3C[C@@H]12 [TET, Tetracycline] | 32 (≈ 72 µM) | 8 (≈ 18 µM) | 4 (≈ 9 µM) | R | > 32 | 4 (≈ 9 µM) | > 32 | 2 (≈ 4.5 µM) | 4 (≈ 9 µM) | 8 (≈ 18 µM) | 4 (≈ 9 µM) | 4 (≈ 9 µM) | 4 (≈ 9 µM) | 4 (≈ 9 µM) | 4 (≈ 9 µM) |
| Trimethoprim-Sulfamethoxazole [SXT] | < 0.5 | < 0.5 | < 0.5 | R | 4 | > 32 | > 32 | 2 | > 32 | < 0.5 | > 32 | > 32 | < 0.5 | < 0.5 | < 0.5 |
| Ampicillin/sulbactam [SAM] | 8 | > 32 | 4 | I | 16 | 16 | 8 | 2 | 16 | 64 | 32 | 16 | 4 | 2 | > 32 |
| Piperacillin/tazobactam [TZP] | 4 | 128 | 4 |  | 8 | 4 | 4 | 2 | 4 | 32 | > 128 | 2 | 2 | 2 | 32 |
| Penicillin | 16 | > 16 | > 16 |  | > 16 | > 16 | > 16 | 16 | > 16 | > 16 | > 16 | > 16 | > 16 | > 16 | 16 |
| Gentamycin | 0.5 | 2 | 0.5 |  | 4 | 0.5 | 2 | 0.5 | 0.5 | 1 | 1 | > 16 | 2 | 1 | 1 |
| C[C@@H](O)[C@H]1C(=O)N2C(C(=O)O)=C(S[C@@H]3CN[C@H](C(=O)Nc4cccc(C(=O)O)c4)C3)[C@H](C)[C@H]12 [ERT, Ertapenem] | 0.008 (≈ 0.0168 µM) | 0.12 (≈ 0.252 µM) | 0.008 (≈ 0.0168 µM) |  | 0.015 (≈ 0.0315 µM) | 0.008 (≈ 0.0168 µM) | 0.008 (≈ 0.0168 µM) | 0.008 (≈ 0.0168 µM) | 0.008 (≈ 0.0168 µM) | 0.25 (≈ 0.526 µM) | 0.12 (≈ 0.252 µM) | 0.008 (≈ 0.0168 µM) | 0.008 (≈ 0.0168 µM) | 0.008 (≈ 0.0168 µM) | 0.016 (≈ 0.0336 µM) |
| C[C@@H](O)[C@H]1C(=O)N2C(C(=O)O)=C(S[C@@H]3CN[C@H](C(=O)N(C)C)C3)[C@H](C)[C@H]12 [MEM, Meropenem] | < 0.06 | < 0.06 | < 0.06 |  | < 0.06 | < 0.06 | < 0.06 | < 0.06 | < 0.06 | < 0.06 | < 0.06 | < 0.06 | < 0.06 | < 0.06 | < 0.06 |
| CO/N=C(\C(=O)N[C@@H]1C(=O)N2C(C(=O)O)=C(CSc3nc(=O)c(=O)[nH]n3C)CS[C@H]12)c1csc(N)n1 [CRO, Ceftriaxone] | < 0.12 | 1 (≈ 1.8 µM) | < 0.12 | I | 2 (≈ 3.61 µM) | < 0.12 | < 0.12 | < 0.12 | < 0.12 | 64 (≈ 115 µM) | > 64 | < 0.12 | < 0.12 | < 0.12 | < 0.12 |
| Imipenem/Cilastatin [IPM] | < 0.12 | < 0.12 | < 0.12 |  | < 0.12 | 0.25 | < 0.12 | < 0.12 | < 0.12 | 0.5 | < 0.12 | < 0.12 | 0.25 | < 0.12 | < 0.12 |
| CC1(C)S[C@@H]2[C@H](NC(=O)[C@H](N)c3ccccc3)C(=O)N2[C@H]1C(=O)O [AMP, Ampicillin] | 4 (≈ 11.4 µM) | > 32 | 4 (≈ 11.4 µM) |  | > 32 | > 32 | > 32 | 4 (≈ 11.4 µM) | > 32 | > 32 | > 32 | > 32 | 4 (≈ 11.4 µM) | 4 (≈ 11.4 µM) | > 32 |
| CC(C)(O/N=C(\C(=O)N[C@@H]1C(=O)N2C(C(=O)[O-])=C(C[n+]3ccccc3)CS[C@H]12)c1csc(N)n1)C(=O)O [CAZ, Ceftazidime] | 0.25 (≈ 0.457 µM) | 4 (≈ 7.32 µM) | 0.25 (≈ 0.457 µM) |  | 2 (≈ 3.66 µM) | 0.25 (≈ 0.457 µM) | 0.25 (≈ 0.457 µM) | 0.12 (≈ 0.22 µM) | 0.25 (≈ 0.457 µM) | > 32 | > 32 | 0.12 (≈ 0.22 µM) | 0.25 (≈ 0.457 µM) | 0.12 (≈ 0.22 µM) | 0.12 (≈ 0.22 µM) |
| C[C@H]1[C@H](NC(=O)/C(=N\OC(C)(C)C(=O)O)c2csc(N)n2)C(=O)N1S(=O)(=O)O [ATM, Aztreonam] | < 0.25 | 8 (≈ 18.4 µM) | < 0.25 |  | 0.5 (≈ 1.15 µM) | < 0.25 | < 0.25 | < 0.25 | < 0.25 | 64 (≈ 147 µM) | 32 (≈ 73.5 µM) | < 0.25 | < 0.25 | < 0.25 | < 0.25 |
| NC[C@H]1O[C@H](O[C@H]2[C@H](O)[C@@H](O[C@H]3O[C@H](CO)[C@@H](O)[C@H](N)[C@H]3O)[C@H](N)C[C@@H]2N)[C@H](N)C[C@@H]1O [TOB, Tobramycin] | 1 (≈ 2.14 µM) | 1 (≈ 2.14 µM) | 2 (≈ 4.28 µM) |  | 1 (≈ 2.14 µM) | 1 (≈ 2.14 µM) | 1 (≈ 2.14 µM) | 1 (≈ 2.14 µM) | 1 (≈ 2.14 µM) | 2 (≈ 4.28 µM) | 4 (≈ 8.56 µM) | 16 (≈ 34.2 µM) | 1 (≈ 2.14 µM) | 1 (≈ 2.14 µM) | 1 (≈ 2.14 µM) |
